Measurements reported in patent publication US8278337B2, “Substituted pyridines that are JNK inhibitors” (Merck Sharp & Dohme, priority 2006, dated 2012).
pIC50: −log10 of the molar value. Values joined by “and” are separate entries in the source; they are usually repeats but may differ in a detail not shown here. Equal values may be shown once. Read-outs that look alike come from different tables or passages of the source.

Molecular target: JNK1 (Homo sapiens, UniProt P45983)
Experiment: DELFIA kinase assay, JNK1
Assay type: biochemical
In short: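 Enzyme (2 nM JNK1) was preincubated 10 min with 0–100 μM compound in HEPES pH 7.3 with 5% DMSO, then reacted 30 min at room temperature with biotinylated GST-ATF2 (6 ug/mL). Final ATP was 7 uM for JNK1, 4 uM for JNK2 and 2 uM for JNK3. Phospho-ATF2 was detected by DELFIA europium fluorescence (ex 340, em 615 nm).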

[1] = DELFIA assay, 2 nM JNK1, 7 uM ATP, 10 min pre-incubation, second table, read-out: JNK 1 IC50
[2] = DELFIA, biotinylated GST-ATF2 substrate, 10 minute pre-incubation, final ATP 7 uM
[3] = DELFIA assay, 2 nM JNK1, 7 uM ATP, 10 min pre-incubation

Chain of JNK1 (P45983 whole entry, species assumed): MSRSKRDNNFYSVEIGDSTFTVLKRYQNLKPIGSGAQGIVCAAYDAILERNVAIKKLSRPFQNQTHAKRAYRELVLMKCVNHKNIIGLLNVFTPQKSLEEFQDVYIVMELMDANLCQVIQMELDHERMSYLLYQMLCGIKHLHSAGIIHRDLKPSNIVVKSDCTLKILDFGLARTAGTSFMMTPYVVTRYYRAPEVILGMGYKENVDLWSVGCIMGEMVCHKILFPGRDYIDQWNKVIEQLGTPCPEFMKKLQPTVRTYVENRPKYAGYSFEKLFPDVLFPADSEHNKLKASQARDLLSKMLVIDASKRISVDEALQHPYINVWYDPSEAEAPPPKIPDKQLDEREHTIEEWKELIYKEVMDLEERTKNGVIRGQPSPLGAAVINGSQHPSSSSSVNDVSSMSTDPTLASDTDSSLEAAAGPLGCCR

| pIC50 [1] | pIC50 [2] | pIC50 [3] | SMILES |
| --- | --- | --- | --- |
| – | 6.02 to 6.99 | – | COc1ccc(F)cc1-c1cccc(C(=O)NCc2ccc(S(C)(=O)=O)cc2)n1 [Compound 329] |
| – | 7.01 to 8.40 | – | CC(C)NC(=O)c1cccc(C(=O)NCc2cncc(-c3ccc(C#N)cc3)c2)n1 [Compound 257] |
| – | < 6.00 and 5.00 to 5.99 | – | CC(C)(C)c1nnc(-c2cccc(C(=O)NCc3ccc(S(C)(=O)=O)cc3)n2)o1 [Compound 303] |
| – | < 6.00 and 5.00 to 5.99 | – | CCOC(=O)Nc1cccc(C(=O)NC2CCN(C(=O)OCC)CC2)n1 [Compound 400] |
| – | < 6.00 | – | CS(=O)(=O)c1ccc(CNC(=O)c2cccc(-n3cccn3)n2)cc1 [Compound 314] |
| – | 5.00 to 5.99 and < 6.00 | – | CS(=O)(=O)c1ccc(CNC(=O)c2cccc(-n3cncn3)n2)cc1 [Compound 326] |
| – | 6.02 to 6.99 | – | CNc1cccc(C(=O)NCc2cnn(-c3cccc(C(F)(F)F)c3)c2)n1 [Compound 362] |
| – | < 6.00 and 5.00 to 5.99 | – | CC(C)NC(=O)c1cccc(C(=O)NCC2CCN(c3cccc(S(C)(=O)=O)c3)CC2)n1 [Compound 421] |
| – | 6.02 to 6.99 | – | CS(=O)(=O)c1ccc(-n2cc(CNC(=O)c3cccc(-n4cc(-c5cccc(F)c5)cn4)n3)cn2)cc1 [Compound 295] |
| – | < 6.00 | – | CCOC(=O)N1CCC(NC(=O)c2cccc(N(C)CCc3ccncc3)n2)CC1 [Compound 394] |
| 8.15 | 7.72 to 8.40 and 7.01 to 8.40 | 8.15 | CC(C)NC(=O)c1cccc(C(=O)NCc2cnn(-c3ccc(S(=O)(=O)N4CCNCC4)c(Cl)c3)c2)n1 [Compound 248] |
| – | < 6.00 | – | CCOC(=O)N1CCC(NC(=O)c2cccc(C(=O)NCc3ccc(S(C)(=O)=O)cc3)c2)CC1 [Compound 371] |
| – | 6.02 to 6.99 | – | COC(=O)Nc1cccc(C(=O)NCc2cnn(-c3cccc(C(F)(F)F)c3)c2)n1 [Compound 355] |
| – | 7.01 to 8.40 | – | CC(C)NC(=O)c1cccc(C(=O)NCc2cncc(-c3ccc(S(C)(=O)=O)cc3)c2)n1 [Compound 255] |
| – | 5.00 to 5.99 and < 6.00 | – | O=C(NCc1cnn(-c2cccc(C(F)(F)F)c2)c1)c1cccc(N2CCC(c3ccccn3)C2)n1 (stereo not drawn) [Compound 346] |
| – | < 6.00 and 5.00 to 5.99 | – | CC(=O)N(C)c1cccc(C(=O)NCc2cnn(-c3cccc(C(F)(F)F)c3)c2)n1 [Compound 363] |
| – | 6.02 to 6.99 | – | O=C(NCc1cccnc1)c1cccc(-n2cc(I)cn2)n1 [Compound 289] |
| – | 7.01 to 8.40 | – | CC(C)NC(=O)c1cccc(C(=O)NCc2cncc(-c3cccc(C#N)c3)c2)n1 [Compound 258] |
| – | < 6.00 | – | CCOC(=O)N1CCC(NC(=O)c2cccc(NCc3ccc4c(c3)OCO4)n2)CC1 [Compound 392] |
| – | 5.00 to 5.99 and < 6.00 | – | CS(=O)(=O)c1ccc(CNC(=O)c2cccc(C(=O)NC3CCN(c4ccncc4)CC3)n2)cc1 [Compound 275] |
| – | 6.02 to 6.99 | – | CS(=O)(=O)c1ccc(-n2cc(CNC(=O)c3cccc(-n4cc(-c5ccc(F)cc5)cn4)n3)cn2)cc1 [Compound 296] |
| – | < 6.00 and 5.00 to 5.99 | – | CS(=O)(=O)c1ccc(CNC(=O)c2cccc(-c3ccccn3)n2)cc1 [Compound 317] |
| – | 6.02 to 6.99 | – | CC(=O)Nc1cccc(C(=O)NCc2cnn(-c3cccc(C(F)(F)F)c3)c2)n1 [Compound 353] |
| – | < 6.00 and 5.00 to 5.99 | – | Cn1cc(-c2cccc(C(=O)NCc3ccc(S(C)(=O)=O)cc3)n2)cn1 [Compound 333] |
| – | < 6.00 and 5.00 to 5.99 | – | CC(C)CN(C)c1cccc(C(=O)NCc2ccc(S(C)(=O)=O)cc2)n1 [Compound 338] |
| 8.40 | 7.72 to 8.40 and 8.40 and 7.01 to 8.40 | 8.40 | CC(C)NC(=O)c1cccc(C(=O)NCc2cnn(-c3ccc(S(=O)(=O)N(C)C)c(Cl)c3)c2)n1 [Compound 246] |
| – | 6.02 to 6.99 | – | CS(=O)(=O)c1ccc(CNC(=O)c2cccc(C(=O)NC3CCN(c4ccccn4)CC3)n2)cc1 [Compound 273] |
| – | < 6.00 and 5.00 to 5.99 | – | CCNC(=O)c1cc(Cl)cc(C(=O)NCc2ccc(S(C)(=O)=O)cc2)n1 [Compound 408] |

Second part, the compound before the results:

| SMILES | pIC50 [1] | pIC50 [2] | pIC50 [3] |
| --- | --- | --- | --- |
| CC(C)NC(=O)c1cccc(C(=O)NCc2cnn(-c3cnc4ccccc4c3)c2)n1 [Compound 144] | 8.15 | 7.72 to 8.40 and 7.01 to 8.40 | – |
| CC(C)NC(=O)c1cccc(C(=O)NCc2cnn(-c3ccc(CN)cc3)c2)n1 [Compound 143] | – | 7.01 to 8.40 | – |
| CC(C)NC(=O)c1cccc(C(=O)NCc2cnn(-c3cc(Cl)cc(Cl)c3)c2)n1 [Compound 138] | – | 7.72 to 8.40 and 7.01 to 8.40 | – |
| Nc1nc2ccc(CNC(=O)c3cccc(C(=O)NCCCn4ccnc4)n3)cc2s1 [Compound 69] | – | 6.02 to 6.99 | – |
| NC(=O)c1cccc(C(=O)NCc2ccc3nc(N)sc3c2)n1 [Compound 52] | – | 6.02 to 6.99 | – |
| CCOC(=O)Nc1nc2ccc(CNC(=O)c3cccc(C(=O)NC(C)C)n3)cc2s1 [Compound 205] | – | 7.01 to 8.40 | – |
| CCNC(=O)N1CCC(NC(=O)c2cccc(C(=O)NCc3ccc(S(C)(=O)=O)cc3)n2)CC1 [Compound 56] | – | < 6.00 | – |
| C[C@@H](CNC(=O)c1cccc(C(=O)NCc2ccc3nc(N)sc3c2)n1)c1ccccc1 [Compound 70] | – | 6.02 to 6.99 | – |
| CC(C)NC(=O)c1cccc(C(=O)NCc2cccc(Cl)c2)n1 [Compound 96] | – | 6.02 to 6.99 | – |
| Nc1nc2ccc(CNC(=O)c3cccc(C(=O)O)n3)cc2s1 [Compound 46] | – | < 6.00 | – |
| Cc1cccc(-n2cc(CNC(=O)c3cccc(C(=O)NC(C)C)n3)cn2)c1 [Compound 129] | – | 7.01 to 8.40 and 7.72 to 8.40 | – |
| CCOC(=O)N1CCC(NC(=O)c2cccc(C(=O)N(C)C)n2)CC1 [Compound 38] | – | < 6.00 | – |
| CC(C)NC(=O)c1cccc(C(=O)NCc2ccc(-c3cccc(Cl)c3)nc2)n1 [Compound 176] | – | 6.02 to 6.99 | – |
| Nc1nc2ccc(CNC(=O)c3cccc(CO)n3)cc2s1 [Compound 63] | – | 5.00 to 5.99 and < 6.00 | – |
| C[C@H](NC(=O)c1cccc(C(=O)NCc2ccc3nc(N)sc3c2)n1)C(=O)O [Compound 66] | – | < 6.00 and 5.00 to 5.99 | – |
| CC(C)NC(=O)c1cccc(C(=O)NCc2cn[nH]c2)n1 [Compound 119] | – | < 6.00 and 5.00 to 5.99 | – |
| CC(C)NC(=O)c1cccc(C(=O)NCc2cnn(-c3ccc4cncnc4c3)c2)n1 [Compound 216] | – | 7.01 to 8.40 | – |
| Nc1nc2ccc(CNC(=O)c3cccc(C(=O)N[C@@H](CO)c4ccccc4)n3)cc2s1 [Compound 54] | – | < 6.00 and 5.00 to 5.99 | – |
| Cc1ccc2cc(-n3cc(CNC(=O)c4cccc(C(=O)NC(C)C)n4)cn3)ccc2n1 [Compound 149] | 7.85 | 7.72 to 8.40 and 7.01 to 8.40 | 7.85 |
| CC(C)NC(=O)c1cccc(C(=O)NCc2cccc(-c3ccccc3)c2)n1 [Compound 125] | – | 7.01 to 8.40 | – |
| CCOC(=O)N1CCC(NC(=O)c2cccc(C(=O)NCc3ccncc3)n2)CC1 [Compound 42] | – | < 6.00 | – |
| CC(C)NC(=O)c1cccc(C(=O)NCc2cnn(-c3ccccc3)c2)n1 [Compound 100] | – | 7.01 to 8.40 | – |
| CC(C)NC(=O)c1cccc(C(=O)NCc2ccc(-c3ccc(C#N)cc3)nc2)n1 [Compound 179] | – | 6.02 to 6.99 | – |
| CS(=O)(=O)c1ccc(CNC(=O)c2cccc(C(=O)NC3CCN(C(N)=O)CC3)n2)cc1 [Compound 55] | – | 6.02 to 6.99 | – |
| CC(C)NC(=O)c1cccc(C(=O)NCc2cnn(-c3cccc(Cl)c3)c2)n1 [Compound 132] | – | 7.01 to 8.40 | – |

| SMILES | pIC50 [1] | pIC50 [2] | pIC50 [3] |
| --- | --- | --- | --- |
| CC(C)NC(=O)c1cccc(C(=O)NCc2ccc(-c3ccc4ncccc4c3)nc2)n1 [Compound 186] | – | 6.02 to 6.99 | – |
| CC(C)NC(=O)c1cccc(C(=O)NCc2ccc(-c3cccc(F)c3)nc2)n1 [Compound 175] | – | 7.01 to 8.40 | – |
| CC(C)NC(=O)c1cccc(C(=O)NCc2cnn(-c3cccnc3)c2)n1 [Compound 141] | – | 7.01 to 8.40 | – |
| CC(C)NC(=O)c1cccc(C(=O)NCc2cccc(-c3ccc(C#N)cc3)c2)n1 [Compound 190] | – | 6.02 to 6.99 | – |
| Nc1nc2ccc(CNC(=O)c3cccc(C(=O)NC4CCCC4)n3)cc2s1 [Compound 67] | – | 6.02 to 6.99 | – |
| CC(C)(C)NC(=O)c1cccc(C(=O)NCc2ccc3nc(N)sc3c2)n1 [Compound 53] | – | 6.02 to 6.99 | – |
| CC(C)NC(=O)c1cccc(C(=O)NC(C)c2ccc(S(C)(=O)=O)cc2)n1 (stereo not drawn) [Compound 121] | – | 6.02 to 6.99 | – |
| CCOC(=O)N1CCC(NC(=O)c2cccc(C(=O)NCCc3ccccc3)n2)CC1 [Compound 45] | – | < 6.00 | – |
| CC(C)NC(=O)c1cccc(C(=O)NCc2ccc(-c3cc(Cl)cc(Cl)c3)nc2)n1 [Compound 185] | – | 6.02 to 6.99 | – |
| CC(C)NC(=O)c1cccc(C(=O)NCc2ccc3nc(NCCN4CCOCC4)sc3c2)n1 [Compound 202] | – | 7.01 to 8.40 | – |
| Nc1nc2ccc(CNC(=O)c3cccc(C(=O)NC4CCN(Cc5ccccc5)CC4)n3)cc2s1 [Compound 30] | – | < 6.00 | – |
| Nc1nc2ccc(CNC(=O)c3cccc(C(=O)N[C@H](CO)c4ccccc4)n3)cc2s1 [Compound 51] | – | 6.02 to 6.99 | – |
| Nc1nc2ccc(CNC(=O)c3cccc(C(=O)N[C@H]4CC[C@H](O)CC4)n3)cc2s1 [Compound 68] | – | 6.02 to 6.99 | – |
| CC(C)NC(=O)c1cccc(C(=O)NCc2cccc(-c3cccc(C#N)c3)c2)n1 [Compound 189] | – | 7.01 to 8.40 | – |
| COC(=O)c1cccc(C2CCN(C(=O)c3cccc(C(=O)NCc4ccc5nc(N)sc5c4)n3)CC2O)c1 (stereo not drawn) [Compound 32] | – | < 6.00 | – |
| CCNC(=O)c1cccc(C(=O)NCc2ccc3nc(N)sc3c2)n1 [Compound 14] | – | < 6.00 | – |
| CC(C)NC(=O)c1cccc(C(=O)NCc2cnn(-c3nccs3)c2)n1 [Compound 163] | – | 6.02 to 6.99 | – |
| CC(C)C[C@@H](CO)NC(=O)c1cccc(C(=O)NCc2ccc3nc(N)sc3c2)n1 [Compound 20] | – | < 6.00 | – |
| CC(C)NC(=O)c1cccc(C(=O)NCc2cnn(-c3ccc4nc(-c5cccnc5)n(C)c4c3)c2)n1 [Compound 238] | – | 7.01 to 8.40 and 7.72 to 8.40 | – |
| CC(C)NC(=O)c1cccc(C(=O)NCc2cnn(-c3ccc4[nH]cnc4c3)c2)n1 [Compound 148] | – | 7.01 to 8.40 | – |
| CC(C)NC(=O)c1cccc(C(=O)NCC2CCN(C(=O)OC(C)(C)C)CC2)n1 [Compound 94] | – | 6.02 to 6.99 | – |
| Cc1ccc(CNC(=O)c2cccc(C(=O)NC(C)C)n2)cc1F [Compound 110] | – | 6.02 to 6.99 | – |
| CC(C)NC(=O)c1cccc(C(=O)NCc2cnn(C)c2)n1 [Compound 116] | – | < 6.00 and 5.00 to 5.99 | – |
| CC(C)NC(=O)c1cccc(C(=O)NCc2nccs2)n1 [Compound 104] | – | 5.00 to 5.99 and < 6.00 | – |
